From article PMC9232612, “A phase 1b randomised controlled trial of a glucagon-like peptide-1 and glucagon receptor dual agonist IBI362 (LY3305677) in Chinese patients with type 2 diabetes” (Nature Communications, 2022)
Where “and” joins values, the source holds several entries; their conditions need not be identical. Identical values can stand only once.

Legend:
[1] = test system: Chinese patients with T2D; experiment: Glycated haemoglobin A1c (HbA1c); assay type: in vivo, human; settings: 1.5 mg once weekly; for HbA1c at week 12, single patients: each line a single patient
Experimental: (§1) HbA1c (2200101, Bio-Rad, USA), blood glucose (05168791190, Roche Diagnostics, Germany), insulin (12017547122, Roche Diagnostics, Germany), C peptide (03184897190, Roche Diagnostics, Germany), total GLP-1 (GLP-1 [7–36] amide and its metabolite, GLP-1 [9–36] amide, 10-1278-01, Mercodia AB, Sweden) and OXM (AL-139, AnshLabs, USA) tests were performed according to the manufactures’ instruction manuals in a central laboratory (KingMed Diagnostics, Guangzhou, China). HbA1c was measured using a Bio-rad D-100 Haemoglobin Testing System (Bio-rad). Blood glucose was measured using a Roche Cobas c702 analyser (Roche Diagnostics). Insulin and C peptide were measured using a Roche […] analyser (Roche Diagnostics). GLP-1 and OXM were measured using a Tecan Infinite M Plex microplate reader (TECAN).
(§2) Standard non-compartmental pharmacokinetics methods were used to analyze IBI362 plasma concentration data using Pkanalix 2020R1 (Lixoft, Antony, France). Secondary efficacy outcomes included change from baseline to week 12 in HbA1c, fasting plasma glucose (FPG), fasting insulin levels, change from baseline to week 12 in post-mixed-meal tolerance test (post-MTT) glucose, insulin, C peptide, GLP-1 and OXM levels, as well as seven-point self-measured blood glucose (SMBG) profile.
(§3) The analyses for change from baseline in HbA1c, FPG, post-MTT glucose AUC0–4 h and body weight were performed using the mixed-effect model for repeated measures (MMRM) with least-squares means and standard error provided. The MMRM included the corresponding baseline value, treatment, visit and treatment-by-visit as fixed effects and patient as a random effect. Mean change or mean percent change from baseline were analysed using a restricted maximum likelihood (REML)‐based repeated measures approach in combination with the Newton Raphson Algorithm. The fix effect of visit was fitted as a repeated effect and an unstructured covariance matrix was used. In case of non-converge, matrix like Variance Components and Compound Symmetry will be tested in a subsequent order until model‐convergence is achieved. The Kenward-Roger degree of freedom was used in estimating fixed effects. No missing data imputation was conducted. For HbA1c, FPG and body weight, point estimate of treatment difference versus placebo and 90% CI were provided for each IBI362 dose group and the dulaglutide group, with nominal p values.

[2] = test system: Chinese patients with T2D; experiment: Mixed-meal tolerance test (MTT): plasma glucose and glucose AUC0-4 h; assay type: in vivo, human; settings: 1.5 mg once weekly, n=6
Experimental: as §1, §2
as §3, with “values. […]” for “values.”
3. Standard meal test (MTT) collection measures included: insulin, C-peptide, plasma glucose, glucagon, endogenous OXM, and endogenous GLP-1. The sampling points include: fasting, 30 min, 1h, 2h, 3h and 4h.
A total of 9 mL blood will be collected from each blood collection point. See the manual of the central laboratory for the detailed operation process. Fasting state refers to fasting for 10 hours. [ The standard meal is
instant noodles. The master Kang roast beef noodles (bucket noodles) purchased by the sponsor in a unified manner are removed from the oil bag. The noodles are soaked in boiled water and then removed. The seasoning
bag is added and mixed well. The time is counted from the first bite of eating. The noodles are eaten within 10 minutes, and 200 mL of water is drunk; or the instant noodles are directly opened with 200 mL of boiled
water to ensure that the noodles are eaten and the water or soup is drunk]. Visit days when MTT test is performed: 1 day prior to Cycle 1 administration, Day 80 (D80). […]
● Test by central laboratory

Question: Which results are given for “Dulaglutide: open-label active reference, subcutaneously once weekly at a fixed dose of 1.5 mg [reference compound]”?
Answer: Percent of patients with change from baseline to week 12 in HbA1c <1.0% ([1]; n=6): 16.7%; Percent of patients with change from baseline to week 12 in HbA1c ≥1.0% and <1.5% ([1]; n=6): 50.0%; Percent of patients with change from baseline to week 12 in HbA1c ≥1.5% and <2.0% ([1]; n=6): 0.0%; Percent of patients with change from baseline to week 12 in HbA1c ≥2.0% ([1]; n=6): 33.3%; HbA1c at week 12, single patients [1]: 6.4% and 6.6% and 6.5% and 7.2% and 6.0%; HbA1c at week 12, single patients ([1]; listed as dulaglutide): 5.5%; Change from baseline in HbA1c, LS mean ([1]; week 4, n=6, MMRM): -1.03%; Change from baseline in HbA1c, LS mean ([1]; week 8, n=6, MMRM): -1.72%; patients achieving ≥1.5% reductions in HbA1c from baseline ([1]; week 12, n=6): 33.3%; Change from baseline in HbA1c, LS mean (SE) ([1]; week 12, n=6, MMRM): -1.98%; HbA1c: ETD versus placebo, LS mean (90% CI) ([1]; week 12, MMRM): −1.11%; Percent change from baseline to week 12 in post-MTT glucose AUC0-4 h, LS mean ([2]; MMRM): -41.70%; Glucose during MTT, mean ([2]; week 12, 0 min): 7.18 mmol/L; Glucose during MTT, mean ([2]; week 12, 30 min): 9.32 mmol/L; Glucose during MTT, mean ([2]; week 12, 60 min): 11.86 mmol/L; Glucose during MTT, mean ([2]; week 12, 120 min): 9.62 mmol/L; Glucose during MTT, mean ([2]; week 12, 180 min): 7.11 mmol/L; Glucose during MTT, mean ([2]; week 12, 240 min): 6.79 mmol/L
